Where no end group is shown, it is not given here.
Tests used:
SK-MEL-28 cells = experiment: Role of PS in uptake (Na3VO4 or Annexin V pretreatment); assay type: cell-based, human
Procedure: To investigate the role of PS in C-ter uptake, cells were pretreated with Annexin V (5 μg/mL) or Na3VO4 (25 μM) and then incubated with fluorochrome-conjugated molecules for 4 hours.

HUVEC = experiment: Cell uptake study (confocal), HUVEC; assay type: cell-based, human; details: 4 h, preliminary experiments
From the text: (§1) The compound of the invention (C-ter) was chemically coupled with the amine reactive dye (Alexa fluor 488 […] tetra fluorophenyl ester (TFP)) using the Microscale Alexa Fluor® 488 Protein Labeling kit (Molecular Probes), following the manufacturer's instructions. Other entities (Amblyomin-X and its fragment called Kunitz domain) were also modified as described above, for comparative analysis.
(§2) The dye-conjugated protein was named 488-Amblyomin-X. Briefly, cells (10^4 cells/well) were seeded into 96-well plates. Once stabilized, the culture medium was replaced and cells were incubated with 488-Amblyomin-X (20 μM) at 37° C. for 2 h, 4 h and 24 h. The cells were then incubated with Alexa Fluor 555 transferrin (100 μg/ml), the cholera toxin B subunit Alexa Fluor 555 (50 μg/ml) or Alexa Fluor 555 dextran (1 mg/ml) in binding medium to 37° C. for 20 min. Nuclei were stained with Hoechst 332. Then, green and red fluorescence were monitored using a Molecular Devices ImageXpress Micro Confocal plate scanning microscope (Molecular Devices, Sunnyvale, CA) or using LSM 510 Meta confocal microscope (Zeiss, Jena, Germany) followed by evaluation of overlap between 488-Amblyomin-X and endocytosis markers using MetaXpress software (Molecular Devices, Sunnyvale, CA).

[1] = system: human umbilical vein endothelial cells (HUVEC); experiment: MTT cell viability assay, HUVEC; assay type: cell-based; details: 48 h, preliminary results
From the text: (§3) Human melanomas (SK-MEL-28), pancreatic adenocarcinomas (MIA-PaCa-2) and murine renal adenocarcinoma cells (RENCA) were obtained and cultured according to the instructions of the American Type Culture Collection (ATCC, Manassas, VA). Human dermal fibroblast cells (HDFa) were obtained from Invitrogen. Endothelial cells were obtained from human umbilical veins (HUVECs), as previously described^11. The study received prior approval from the Research Ethics Committee and the free and informed consent form was obtained from female donors. HUVECs were seeded in T75 flasks previously covered with 2% gelatin and cultured in RPMI medium, supplemented with 10% fetal bovine serum, L-glutamine (2 mM), streptomycin sulfate ([…]), penicillin (100 U/ml) sodium pyruvate ([…]), 2-mercaptoethanol ([…]), ECGF ([…]) and heparin (45 μg/ml), pH 7.4. In all experiments, HUVEC were used in the second or third passages. All cell lines were routinely cultured in a humidified 5% CO2 incubator at 37° C.
(§4) Cell viability was measured by the 3-(4,5-dimethylthiazol-2-yl)-2,5-diphenyltetrazolium bromide (MTT) assay. […] Afterwards, the medium was discarded, the dark blue crystalline formazan product was dissolved in […] of dimethyl sulfoxide (DMSO), and the absorbance was measured in a Spectra MAX 190 microplate reader (Molecular Devices, Sunnyvale, USA) at 540 nm.

[2] = system: SK-MEL-28 human melanoma cells; experiment: MTT cell viability assay, SK-MEL-28; assay type: cell-based; details: SK-MEL-28, 48 h, increasing concentrations; Amblyomin-X 20 μM
From the text: as §3, §4

Tumor cell lines = experiment: Co-localization with endocytosis and intracellular markers; assay type: cell-based, human
Procedure: as §2
Tumor cells were cultured in 96-well plates (10^4 cells/well) and treated with 488-Amblyomin-X (20 μM) to indicate times. Cells were washed twice with PHEM-glycine buffer (2 mM HEPES, 10 mM EGTA, 2 mM MgCl2, 60 mM Pipes, 100 mM glycine, pH 6.9) and fixed with 4% paraformaldehyde for 3 h at room temperature. The washing step was repeated and then the cells were incubated with a cell permeabilizing solution (0.1% Tween in PHEM) for 5 minutes at room temperature. Samples were washed and incubated with 1% BSA blocking solution for 30 minutes at room temperature. Next, the primary antibody was incubated overnight at 4° C.: (i) caveolin-1 anti-human mouse 1:100 (Santa Cruz Biotechnology, Inc., USA); (ii) 1:50 anti-human LAMP-2 rabbit (Abcam). […] Next, green and red fluorescence were monitored by a Molecular Devices ImageXpress Micro Confocal Plate Scanning Microscope (Molecular Devices, Sunnyvale, CA) followed by evaluation of overlap between 488-Amblyomin-X and endocytosis markers using MetaXpress software (Molecular Devices, Sunnyvale, CA) or vesicle interactions by Imaris software.

SK-MEL-28 = experiment: Cell uptake study with Alexa Fluor 488 labelled molecules, SK-MEL-28; assay type: cell-based, human; details: for Uptake by tumor cells: Alexa Fluor 488 labelled
From the text: as §1
as §2, with “Once stabilized, the culture medium was replaced and cells were incubated with 488-Amblyomin-X (20 μM) at 37° C. for 2 h, 4 h and 24 h.” left out

HDFa = experiment: Cell uptake study (confocal), HDFa; assay type: cell-based, human; details: 4 h, preliminary experiments
From the text: as §1, §2

[3] = system: murine renal adenocarcinoma cells (RENCA); experiment: MTT cell viability assay, RENCA; assay type: cell-based; details: 48 h, preliminary results
From the text: as §3, §4

[4] = system: human dermal fibroblasts (HDFa); experiment: MTT cell viability assay, HDFa; assay type: cell-based; details: 48 h, preliminary results
From the text: as §3, §4

Mia PaCa-2 = experiment: Cell uptake study with Alexa Fluor 488 labelled molecules, Mia PaCa-2; assay type: cell-based, human; details: for Uptake by tumor cells: Alexa Fluor 488 labelled
From the text: as §1
as §2, with “Once stabilized, the culture medium was replaced and cells were incubated with 488-Amblyomin-X (20 μM) at 37° C. for 2 h, 4 h and 24 h.” left out

[5] = system: MIA PaCa-2 pancreatic adenocarcinoma cells; experiment: MTT cell viability assay, MIA PaCa-2; assay type: cell-based, human; details: MIA PaCa-2, 48 h, increasing concentrations; Amblyomin-X 20 μM
From the text: as §3, §4

HUVECs = experiment: Charge delivery capacity, uptake of Alexa 488 labelled peptides by HUVECs (HCS); assay type: cell-based, human; details: for uptake by HUVECs (HCS): 10 μM; for detection within HUVECs (HCS): after 4 h, 0.5, 1, 10 and 20 μM
Procedure: Endothelial cell culture was obtained from umbilical cords by digestion of umbilical cord veins with collagenase as described previously (19) with some modifications (20). Endothelial cells between the first and third passage were used for all experiments. Cells were seeded in 96-well culture plates (Advance, Greiner), special for immunofluorescence, at a density of 8×10^3 cells/well pre-coated with 2% (w/v) gelatin in EGM®-2 BulletKit® medium for HUVECs (Lonza, CC-3162) allowed to seed at 37° C. in a humidified atmosphere of 5% CO2. Cells were treated and incubated in RPMI medium containing 1% fetal bovine serum (FBS) and Alexa-Fluor 488 labeled peptides (C-ter/Seq ID No 1, P4/Seq ID No 2, or P4-Cter/Seq ID No 3) at different concentrations and times. After treatment, the cells were fixed with 4% paraformaldehyde and analyzed in ImageXpress Micro Confocal High-Content Imaging (HCS, Molecular Devices) in Widefield mode and the number of vesicles containing the peptides in the cells was quantified using MetaXpress High-Content Image Acquisition and Analysis Software (Molecular Devices).
Peptides Cter, P4 and P4-C-ter were labeled with cell-impermeable Alexa Fluor 488. The capacity of P4 and P4-Cter peptides bound to Alexa 488 by HUVECs at 1 h, 2 h and 4 h was analyzed using different concentrations: 0.5 μM, 1 μM, 10 μM and 20 μM (FIG. 9). This was compared with uptake of C-ter peptide linked to Alexa 488 (concentration of 0.5 μM, 1 μM, 10 μM and 20 μM) after 4 hours, as shown in previous experiments for SK-MEL-28 (FIG. 3).

**Q.** For “C-ter: polypeptide of SEQ ID No. 1, 50 amino acids, carboxy-terminal end of Amblyomin-X, prepared by chemical synthesis (EEQTHFHFESPKLISFKVQDYWILNDIMKKNLTGISLKSEEEDADSGEID)”, which “uptake after pretreatment with Na3VO4” value (SK-MEL-28 cells; SK-MEL-28, Na3VO4 pretreatment, then 4 h) is on record?
**A.** The value was “not affected”.

**Q.** And the “tumor cell penetration after pretreatment with Na3VO4 or Annexin V” value (SK-MEL-28 cells; pretreatment with Na3VO4 or Annexin V)?
**A.** The value was “retains its ability to penetrate tumor cells”.

**Q.** What about the “uptake by non-tumor cells” value (HUVEC) of the same molecule?
**A.** Its value is “uptake by these cells”.

**Q.** And the “cell viability (MTT)” value [1]?
**A.** The value was “no change was observed”.

**Q.** And the “cell viability (MTT)” value [2]?
**A.** The value was “no change was observed”.

**Q.** And the “overlap with endocytosis markers (dextran, CTxB, transferrin)” value (Tumor cell lines; Alexa Fluor 555 labelled markers, shortest treatment time)?
**A.** Its value is “the highest were with CTxB”.

**Q.** What about the “co-localization with late endosomal markers” value (Tumor cell lines; Lyso Tracker, LAMP-2) of the same molecule?
**A.** Its value is “found in co-localization with late endosomal markers, Lyso Tracker and LAMP-2”.

**Q.** What about the “co-localization with cav-1” value (Tumor cell lines; indirect immunofluorescence) of the same molecule?
**A.** The value was “occurred mainly after 4 hours of treatment”.

**Q.** And the “cells positive for nuclear translocation” value (SK-MEL-28; SK-MEL-28)?
**A.** The value was “few cells were positive”.

**Q.** And the “uptake by cells (green fluorescence, confocal)” value (SK-MEL-28; SK-MEL-28, 20 μM, 4 h, Alexa Fluor 488 complexed)?
**A.** The value was “taken up”.

**Q.** And the “Uptake by tumor cells” value (SK-MEL-28; SK-MEL-28, 0.25 h)?
**A.** Its value is 30.84 ± 17.2.

**Q.** What about the “Uptake by tumor cells” value (SK-MEL-28; SK-MEL-28, 0.5 h) of the same molecule?
**A.** The value was 35.56 ± 21.09.

**Q.** And the “Uptake by tumor cells” value (SK-MEL-28; SK-MEL-28, 1 h)?
**A.** Its value is 62.17 ± 11.20.

**Q.** And the “Uptake by tumor cells” value (SK-MEL-28; SK-MEL-28, 2 h)?
**A.** The value was 558.48 ± 189.00.

**Q.** What about the “Uptake by tumor cells” value (SK-MEL-28; SK-MEL-28, 4 h) of the same molecule?
**A.** The value was 1210.74 ± 379.14.

**Q.** And the “uptake by non-tumor cells” value (HDFa)?
**A.** Its value is “uptake by these cells”.

**Q.** What about the “cell viability (MTT)” value [3] of the same molecule?
**A.** Its value is “decreasing the viability of RENCA by 1 μM”.

**Q.** What about the “cell viability (MTT)” value [4] of the same molecule?
**A.** The value was “no change was observed”.

**Q.** What about the “cells positive for nuclear translocation” value (Mia PaCa-2; MIA PaCa-2) of the same molecule?
**A.** The value was “few cells were positive”.

**Q.** And the “Uptake by tumor cells” value (Mia PaCa-2; Mia PaCa-2, 0.25 h)?
**A.** Its value is 3.45 ± 1.34.

**Q.** And the “Uptake by tumor cells” value (Mia PaCa-2; Mia PaCa-2, 0.5 h)?
**A.** Its value is 4.84 ± 1.95.

**Q.** What about the “Uptake by tumor cells” value (Mia PaCa-2; Mia PaCa-2, 1 h) of the same molecule?
**A.** The value was 13.74 ± 7.15.

**Q.** What about the “Uptake by tumor cells” value (Mia PaCa-2; Mia PaCa-2, 2 h) of the same molecule?
**A.** The value was 604.99 ± 24.47.

**Q.** And the “Uptake by tumor cells” value (Mia PaCa-2; Mia PaCa-2, 4 h)?
**A.** Its value is 976.55 ± 74.55.

**Q.** And the “cell viability (MTT)” value [5]?
**A.** The value was “no change was observed”.

**Q.** How did the “uptake by HUVECs (HCS)” value (HUVECs; 4 h) turn out when “P4-Alexa 488: peptide P4 (SEQ ID No. 2) labeled with Alexa Fluor 488 (YAIGYSSKDYK; also: Alexa Fluor 488 label) [reference compound]” was run?
**A.** The value was “poorly detected”.

**Q.** What about the “detection within HUVECs (HCS)” value (HUVECs) of the same molecule?
**A.** The value was “not detected within cells”.

B1: P4-Cter-Alexa488: hybrid peptide P4-Cter (SEQ ID No. 3) labeled with Alexa Fluor 488 (conjugate)
chain: YAIGYSSKDYKEEQTHFHFESPKLISFKVQDYWILNDIMKKNLTGISLKSEEEDADSGEID
modifications: also: Alexa Fluor 488 label
**Q.** What does the source list for B1?
**A.** uptake by HUVECs (HCS) (HUVECs; 1 h): efficiently absorbed; detection within HUVECs (HCS) (HUVECs): captured and quantified

Source: patent US12303547B2, “Compound, use, pharmaceutical composition, method of diagnosis, method of treatment, and method of transportation and/or internalization of a compound into eukaryotic cells” (priority 2018, dated 2025)
